Test results published in patent publication US12187712B2, “Cardiac sarcomere inhibitors” (Cytokinetics, Inc., priority 2018, dated 2025).

How the values were obtained:
[1] = biological target: T1, bovine cardiac myofibrils (Bos taurus, UniProt Q9BE39); assay: Skinned myofibril ATPase assay (PK/LDH-coupled), CDMF75; assay type: biochemical; conditions: inhibition of steady-state ATPase activity of bovine cardiac myofibrils at 75% Ca2+ activation (pCa75)
T1 construct: full-length cardiac myosin in the context of the native sarcomere, skinned myofibril assays were performed; from tissue; host or cells: bovine cardiac left ventricular tissue, detergent-skinned (Triton X-100) myofibrils
T1 sequence (Q9BE39 whole entry): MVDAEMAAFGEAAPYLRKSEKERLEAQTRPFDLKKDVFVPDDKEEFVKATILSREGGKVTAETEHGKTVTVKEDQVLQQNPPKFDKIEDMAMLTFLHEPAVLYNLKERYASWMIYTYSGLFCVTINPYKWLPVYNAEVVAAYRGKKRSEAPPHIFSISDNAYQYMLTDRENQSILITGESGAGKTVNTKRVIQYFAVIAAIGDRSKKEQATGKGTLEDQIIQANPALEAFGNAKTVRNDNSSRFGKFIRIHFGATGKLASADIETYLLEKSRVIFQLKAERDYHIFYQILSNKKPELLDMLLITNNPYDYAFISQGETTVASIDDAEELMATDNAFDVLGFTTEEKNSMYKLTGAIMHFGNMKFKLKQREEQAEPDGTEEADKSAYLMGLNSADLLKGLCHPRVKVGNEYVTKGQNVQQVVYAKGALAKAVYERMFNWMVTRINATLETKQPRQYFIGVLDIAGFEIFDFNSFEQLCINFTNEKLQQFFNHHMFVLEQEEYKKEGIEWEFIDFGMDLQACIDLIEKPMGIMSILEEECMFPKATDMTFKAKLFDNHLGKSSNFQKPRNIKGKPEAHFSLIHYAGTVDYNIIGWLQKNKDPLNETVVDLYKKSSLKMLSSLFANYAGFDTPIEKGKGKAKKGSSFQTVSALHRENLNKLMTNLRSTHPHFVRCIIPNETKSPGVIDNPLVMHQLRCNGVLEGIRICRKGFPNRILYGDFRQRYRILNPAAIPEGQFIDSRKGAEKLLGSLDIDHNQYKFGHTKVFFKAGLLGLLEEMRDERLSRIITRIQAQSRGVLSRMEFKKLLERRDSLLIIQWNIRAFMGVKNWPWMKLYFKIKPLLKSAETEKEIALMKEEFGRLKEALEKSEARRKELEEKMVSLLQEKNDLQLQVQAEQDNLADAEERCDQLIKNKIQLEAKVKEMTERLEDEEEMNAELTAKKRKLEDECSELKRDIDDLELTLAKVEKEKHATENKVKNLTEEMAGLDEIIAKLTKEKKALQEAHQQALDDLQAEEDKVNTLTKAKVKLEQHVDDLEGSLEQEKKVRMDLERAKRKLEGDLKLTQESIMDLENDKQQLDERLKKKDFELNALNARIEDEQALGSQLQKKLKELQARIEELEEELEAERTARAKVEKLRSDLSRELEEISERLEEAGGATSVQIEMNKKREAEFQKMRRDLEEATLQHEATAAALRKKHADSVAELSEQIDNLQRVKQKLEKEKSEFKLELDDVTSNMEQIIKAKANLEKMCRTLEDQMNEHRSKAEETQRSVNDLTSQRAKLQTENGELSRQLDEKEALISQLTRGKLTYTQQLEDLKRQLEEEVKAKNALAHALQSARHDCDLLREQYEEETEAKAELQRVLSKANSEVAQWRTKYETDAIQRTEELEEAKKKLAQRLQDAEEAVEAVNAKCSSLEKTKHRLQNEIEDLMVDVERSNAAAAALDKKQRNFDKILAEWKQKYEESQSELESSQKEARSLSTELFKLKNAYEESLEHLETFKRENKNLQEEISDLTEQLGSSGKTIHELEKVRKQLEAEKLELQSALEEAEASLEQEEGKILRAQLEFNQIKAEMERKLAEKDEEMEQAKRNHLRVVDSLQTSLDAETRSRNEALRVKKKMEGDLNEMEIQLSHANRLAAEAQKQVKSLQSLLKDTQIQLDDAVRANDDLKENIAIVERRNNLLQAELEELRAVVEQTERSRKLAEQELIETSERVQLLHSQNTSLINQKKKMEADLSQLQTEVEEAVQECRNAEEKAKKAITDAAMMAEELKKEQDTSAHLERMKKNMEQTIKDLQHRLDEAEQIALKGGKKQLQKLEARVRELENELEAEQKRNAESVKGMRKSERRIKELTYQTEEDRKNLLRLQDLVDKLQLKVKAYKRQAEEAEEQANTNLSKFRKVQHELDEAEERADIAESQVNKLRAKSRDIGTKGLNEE
T1 sequence (P85100 whole entry partner): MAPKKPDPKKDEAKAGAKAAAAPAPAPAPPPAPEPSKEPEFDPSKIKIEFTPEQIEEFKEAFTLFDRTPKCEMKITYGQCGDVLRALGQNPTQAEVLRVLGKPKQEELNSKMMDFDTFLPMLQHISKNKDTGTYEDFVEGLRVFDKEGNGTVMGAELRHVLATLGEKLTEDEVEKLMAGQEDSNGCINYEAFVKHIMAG
T1 sequence (Q3SZE5 whole entry partner): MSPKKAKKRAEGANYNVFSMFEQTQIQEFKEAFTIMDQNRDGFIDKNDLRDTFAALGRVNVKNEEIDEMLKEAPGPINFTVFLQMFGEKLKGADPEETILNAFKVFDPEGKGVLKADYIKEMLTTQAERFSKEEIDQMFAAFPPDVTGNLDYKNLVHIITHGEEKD
Description: To evaluate the effect of compounds on the ATPase activity of full-length cardiac myosin in the context of the native sarcomere, skinned myofibril assays were performed. Bovine cardiac myofibrils were obtained by homogenizing bovine cardiac left ventricular tissue in the presence of a detergent such as triton X-100. Such treatment removes membranes and a majority of the soluble cytoplasmic proteins but leaves intact the cardiac sarcomeric acto-myosin apparatus. Myofibril preparations retain the ability to hydrolyze ATP in an Ca^2+ regulated manner. ATPase activities of such myofibril preparations in the presence and absence of compounds were assayed at Ca^2+ concentrations activating to a defined fraction of the maximal rate (i.e., 25%, 75%). Small molecule agents were assessed for their ability to inhibit the steady-state ATPase activity of bovine cardiac myofibrils using pyruvate kinase and lactate dehydrogenase (PK/LDH)-coupled enzyme system. This assay regenerates myosin-produced ADP into ATP by oxidizing NADH, producing an absorbance change at 340 nm. Prior to testing small molecule agents, the bovine cardiac myofibrils were assessed for their calcium responsiveness and the calcium concentration that achieves either a 50% (pCa50) or 75% (pCa75) activation of the myofibril system was chosen as the final condition for assessing the inhibitory activity of the small molecule agents. All enzymatic activity was measured in a buffered solution containing 12 mM PIPES (piperazine-N,N′-bis(2-ethanesulfonic acid), 2 mM magnesium chloride at pH 6.8 (PM 12 buffer). Final assay conditions were 1 mg/mL of bovine cardiac myofibrils, 4 U/mL pyruvate kinase, 6 U/mL lactate dehydrogenase, 50 μM ATP, 0.1 mg/mL BSA (bovine serum albumin), 10 ppm antifoam, 1 mM DTT, 0.5 mM NADH, 1.5 mM PEP, 0.6 mM EGTA, and an amount of CaCl2 sufficient to achieve either 50% or 75% activation of the myofibril ATPase activity. Results for compounds tested are provided in Table A. Compounds tested were prepared in accordance with the synthetic procedures described herein.

[2] = system: adult cardiac ventricular rat myocytes; assay: Adult ventricular myocyte contractility (fractional shortening); assay type: cell-based, Sprague-Dawley rats; conditions: 5 min perfusion, 5 cells tested
Description: Adult male Sprague-Dawley rats were anesthetized and the hearts were quickly excised, rinsed and the ascending aorta was cannulated. Continuous retrograde perfusion was initiated on the hearts at a perfusion pressure of 60 cm H2O. Hearts were first perfused with a nominally Ca^2+-free modified Krebs solution of the following composition: 113 mM NaCl, 4.7 mM KCl, 0.6 mM KH2PO4, 0.6 mM Na2HPO4, 1.2 mM MgSO4, 12 mM NaHCO3, 10 mM KHCO3, 30 mM taurine, 5.5 mM glucose and 10 mM Hepes (all Sigma). This medium is not recirculated and is continually aerated with a 95% O2/5% CO2 mixture. After approximately 3 minutes, the heart was perfused with a modified Krebs buffer supplemented with collagenase (Worthington) and 12.5 μM final calcium concentration. The heart was removed from the cannulae after the heart appeared blanched and soft in appearance. The atria and vessels were removed, and the ventricles were gently dissected into smaller pieces with forceps. The tissue was homogenized by repeated pipette trituration, and the collagenase reaction was stopped by 10% bovine calf serum (BCS), sedimentation and resuspension in perfusion buffer containing 5% BCS and 12.5 uM CaCl2. Myocytes were made calcium tolerant by stepwise addition of a CaCl2 solution to a final concentration of 1.2 mM. Cells were then washed and resuspended in Tyrode's buffer (137 mM NaCl, 3.7 mM KCl, 0.5 mM MgCl, 11 mM glucose, 4 mM Hepes, and 1.2 mM CaCl2, pH 7.4). Cells were kept for 60 min at 37° C. prior to initiating experiments and used within 5 hrs of isolation. […] Additionally, only cells whose basal contractility was between 3 and 8% were used in subsequent experiments with compounds.
Aliquots of myocytes in Tyrode's buffer were placed in perfusion chambers (series 20 RC-27NE; Warner Instruments) complete with heating platforms. […] Contractility of the myocytes and contraction and relaxation velocities were then recorded using edge detection.
Five or more individual myocytes were tested per compound from two or more different myocyte preparations. […] These average transients were analyzed using the IonWizard software (IonOptix) to determine changes in diastolic length and fractional shortening. Fractional shortening was calculated as: ((resting length −length at peak contraction) divided by the resting length). The percent change in fractional shortening from baseline was calculated as: ((post-dose fractional shortening/basal fractional shortening)*100). The percent reduction in fractional shortening from baseline was calculated as: (100−percent change in fractional shortening from baseline). Maximum contraction and relaxation velocities (um/sec) was also determined. Results from individual cells were averaged and the SEM was calculated.

[3] = system: rat cardiac contractility; assay: Echocardiography assessment of acute pharmacodynamic effect in rat cardiac contractility (continuous IV infusion); assay type: in vivo, Sprague Dawley rats; conditions: estimated plasma concentration for 20% relative reduction in cardiac fractional shortening, loading + maintenance IV dose 0.5 + 1.5 mg/kg, isoflurane anesthesia
Description: Echocardiography assessment of acute pharmacodynamic effect in rat cardiac contractility.
Assessment of in vivo cardiac function by echocardiography was performed in male Sprague Dawley rats under isoflurane (1-3%) anesthesia. 2-D M-mode images of the left ventricle were acquired in the parasternal long-axis view before and during administration of compounds by continuous IV infusion. In vivo fractional shortening was determined by M-mode image analysis with the following calculation: ((End diastolic diameter−end systolic diameter)/end diastolic diameter×100). For continuous IV infusion experiments, three pre-dose baseline M-mode images were taken at 1 minute intervals prior to infusion of compound. Compounds were formulated in 50% Propylene Glycol (PG): 16% Cavitron: 10% dimethylacetamide (DMA) and delivered via a jugular vein catheter at the rate of 1 mL/kg/h. An estimated loading and maintenance IV infusion dose was administered to establish a steady state plasma concentration that produced a sustained, 20% relative reduction in cardiac fractional shortening for 60 minutes. During infusion, M-mode images were taken at 5 minute intervals for 60 minutes. Blood samples were taken to determine the plasma concentration of the compounds. Data were reported as an estimated IC20 value, which is the concentration at which fractional shortening is […]. […]

Cc1nc(-c2ccc(CNc3cc(C(N)=O)ccn3)cc2)no1 [Compound 19, 2-((4-(5-methyl-1,2,4-oxadiazol-3-yl)benzyl)amino) isonicotinamide]
CDMF75 IC15 [1]: 1200 nM
IC50 [1]: 4300 nM
% FS (% reduction from baseline) ± SEM ([2]; concentration 10 μM): 14.4 ± 3.4%

Cc1nc(-c2ccc([C@@H](C)Nc3cnccn3)cc2)no1 [Compound 28, (R)-N-(1-(4-(5-methyl-1,2,4-oxadiazol-3-yl)phenyl)ethyl)pyrazin-2-amine]
CDMF75 IC15 [1]: 600 nM
IC50 [1]: 2600 nM
% FS (% reduction from baseline) ± SEM ([2]; concentration 5 μM): 43.6 ± 9.3%
IC20 at 1.5 mg/kg [3]: 800 nM

C[C@@H](Nc1cnccn1)c1ccc(-c2noc(C(F)(F)F)n2)cc1 [Compound 34, (R)-N-(1-(4-(5-(trifluoromethyl)-1,2,4-oxadiazol-3-yl)phenyl)ethyl)pyrazin-2-amine]
CDMF75 IC15 [1]: 500 nM
IC50 [1]: 2300 nM
% FS (% reduction from baseline) ± SEM ([2]; concentration 5 μM): 30.7 ± 5.0%

Cc1cc(-c2ccc(CNc3cnccn3)cc2)no1 [Compound 52, N-(4-(5-methylisoxazol-3-yl)benzyl)pyrazin-2-amine]
CDMF75 IC15 [1]: 200 nM
IC50 [1]: 1000 nM
% FS (% reduction from baseline) ± SEM ([2]; concentration 1 μM): 17.4 ± 6.8%

COc1cnc(NCc2ccc(-c3cc(C)on3)cc2)cn1 [Compound 67, 5-methoxy-N-(4-(5-methylisoxazol-3-yl)benzyl)pyrazin-2-amine]
CDMF75 IC15 [1]: 400 nM
IC50 [1]: 2200 nM

Cc1cc(-c2ccc(CNc3cc(=O)cc[nH]3)cc2)no1 [Compound 68, 2-([[4-(5-methyl-1,2-oxazol-3-yl)phenyl]methyl]amino)-1,4-dihydropyridin-4-one]
CDMF75 IC15 [1]: >39200 nM
IC50 [1]: > 39200 nM

Cc1coc(-c2ccc(CNc3cnccn3)cc2)n1 [Compound 69, N-[[4-(4-methyl-1,3-oxazol-2-yl)phenyl]methyl]pyrazin-2-amine]
CDMF75 IC15 [1]: 18400 nM
IC50 [1]: > 39200 nM

FC(F)(F)c1nc(-c2ccc(CNc3cnccn3)cc2)no1 [Compound 70, N-(4-(5-(trifluoromethyl)-1,2,4-oxadiazol-3-yl)benzyl)pyrazin-2-amine]
CDMF75 IC15 [1]: 800 nM
IC50 [1]: 4100 nM

COc1cccc(NCc2ccc(-c3cc(C)on3)cc2)n1 [Compound 71, 6-methoxy-N-[[4-(5-methyl-1,2-oxazol-3-yl)phenyl]methyl]pyridin-2-amine]
CDMF75 IC15 [1]: >39200 nM
IC50 [1]: > 39200 nM
